Test results from patent US20060079453A1, “Hla binding peptides and their uses” (priority 2002, published 2006).
“And” between values parts separate entries of the source, which are not always exact repeats. Equal values may be shown once. Read-outs that look alike come from different tables or passages of the source. No end group written: not given here.

Assays:
[1] = target: HLA-A*2902 (Homo sapiens, UniProt P04439, A270S/D101N/D185E/E176V/E277Q/E87Q/F33T/G231S/H175R/I121M/I218V/I322F/K168Q/L300P/L318F/M331R/P208A/P217A/Q86L/T323A/T345S/V100A/V358M); assay: MHC molecular binding / Capture assay, IC50: A*2902
[2] = target: HLA-A*0101 (Homo sapiens, UniProt P04439, A114D/A174V/A182V/D101N/D185E/E176A/E190D/L180R/Q94H/R68K/S129P/T187R/V100A/V91M/W191G); assay: biochemical; assay type: binding; settings: Binding affinity to A*0101 (expressed as an IC50)
[3] = target: HLA-A*3002 (Homo sapiens, UniProt P04439, D101N/D140H/D185E/E176R/F33S/G80R/H175R/K168Q/Q94H/R138E/R41S/V100E); assay: biochemical; assay type: binding
[4] = target: H-2 Db (Mus musculus, UniProt P01899); assay: biochemical; assay type: binding, murine; settings: Db
[5] = target: HLA-A*2301 (Homo sapiens, UniProt P04439, D101N/D140Y/D185E/E176V/E190D/F33S/G103R/G107R/H175R/I119L/I121M/I306V/K168Q/K335N/L105A/L300P/N151K/N90K/P307H/Q86E/Q94H/R106L/R138H/R89G/T104I/T345S/V100E/W191G/Y123F); assay: biochemical; assay type: binding
[6] = target: HLA-A*2402 (Homo sapiens, UniProt P04439, D101N/D140Y/D185E/E176V/E190D/F33S/G103R/G107R/I119L/I121M/I306V/K335N/L105A/L180Q/L300P/N151K/N90K/Q86E/Q94H/R106L/R138H/R89G/T104I/T345S/V100E/W191G/Y123F); assay: MHC molecular binding / Capture assay, IC50: A*2402
[7] = Binding affinity to A*2902 (expressed as an IC50)
[8] = Binding affinity to A*3002 (expressed as an IC50)

Chain of H-2 Db (P61769 21-119): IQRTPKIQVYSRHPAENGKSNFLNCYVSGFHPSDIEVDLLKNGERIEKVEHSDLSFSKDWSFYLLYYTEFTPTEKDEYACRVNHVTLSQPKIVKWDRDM
Chain of H-2 Db (P01899 25-362): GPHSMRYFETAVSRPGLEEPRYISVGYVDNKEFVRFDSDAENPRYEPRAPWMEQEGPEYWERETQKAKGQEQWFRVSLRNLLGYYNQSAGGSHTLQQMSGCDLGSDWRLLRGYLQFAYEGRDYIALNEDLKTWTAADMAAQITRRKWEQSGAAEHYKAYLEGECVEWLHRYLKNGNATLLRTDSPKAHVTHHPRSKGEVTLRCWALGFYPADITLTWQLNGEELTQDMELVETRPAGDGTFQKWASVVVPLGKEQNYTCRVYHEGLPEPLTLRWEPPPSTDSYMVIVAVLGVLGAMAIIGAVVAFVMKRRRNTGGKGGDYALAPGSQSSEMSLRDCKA

Row | Compound | IC50 [2] | IC50 [1] [nM] | IC50 [3] [nM] | other results
1 | VSSIFISFY | 144 nM |  |  | IC50 [1, 7]: 1800 nM; IC50 [3, 8]: 55 nM
2 | CC[C@H](C)[C@H](NC(=O)[C@H](Cc1ccccc1)NC(=O)[C@H](CCC(N)=O)NC(=O)CNC(=O)[C@H](CC(N)=O)NC(=O)[C@H](CCC(N)=O)NC(=O)[C@@H]1CCCN1C(=O)[C@H](CCC(N)=O)NC(=O)[C@@H](N)Cc1ccccc1)C(=O)N[C@@H](Cc1c[nH]cn1)C(=O)N[C@@H](Cc1ccccc1)C(=O)N[C@@H](Cc1ccc(O)cc1)C(=O)O |  |  |  | IC50 [4]: 280 nM
3 | SGVENPGGYCL |  |  |  | IC50 [4]: 60 nM
4 | KQYLNLYPV |  |  |  | IC50 [4]: 3.4 nM
5 | FAPGYNPAL [FAPGYNPAL] |  |  |  | IC50 [4]: 2 nM
6 | YMRVNGKWM |  |  |  | IC50 [4]: 50 nM
7 | SGVENPGGYCM |  |  |  | IC50 [4]: 128 nM
8 | CC[C@H](C)[C@H](NC(=O)[C@H](Cc1c[nH]cn1)NC(=O)[C@H](Cc1ccccc1)NC(=O)[C@@H](N)Cc1c[nH]c2ccccc12)C(=O)N[C@@H](CO)C(=O)N[C@@H](CS)C(=O)N[C@@H](CC(C)C)C(=O)N[C@H](C(=O)N[C@@H](Cc1ccccc1)C(=O)O)[C@@H](C)O | 85300 nM | 95 | 75100 | IC50 [5]: 11 nM; IC50 [6]: 204 nM
9 | FTSKVRKYRY | 64 nM and 37 nM | 6680 | 52 | 
10 | CC(C)C[C@H](NC(=O)CNC(=O)[C@@H](NC(=O)[C@H](CC(N)=O)NC(=O)[C@@H](NC(=O)[C@H](CC(C)C)NC(=O)[C@H](CCCCN)NC(=O)[C@H](CCC(=O)O)NC(=O)[C@H](CC(C)C)NC(=O)[C@@H](N)[C@@H](C)O)[C@@H](C)O)[C@@H](C)O)C(=O)N[C@@H](Cc1ccc(O)cc1)C(=O)O | 77 nM and 23 nM | 991 | 92 | IC50 [1, 7]: 5500 nM
11 | FQAAESNERY | 8960 nM |  |  | IC50 [1, 7]: 1780 nM; IC50 [3, 8]: 372 nM
12 | TLEKGPGPGLY | 13 nM |  |  | IC50 [1, 7]: 2040 nM; IC50 [3, 8]: 40 nM
13 | LTDIEITCVY | 12 nM and 33 nM | 540 | 80 | 
14 | KTRYYDYSVY | 2960 nM | 87800 | 0.71 | 
15 | CC[C@H](C)[C@H](NC(=O)[C@@H](NC(=O)[C@@H]1CCCN1C(=O)[C@H](Cc1c[nH]cn1)NC(=O)[C@H](CO)NC(=O)[C@H](Cc1ccc(O)cc1)NC(=O)[C@@H](N)CC(C)C)[C@@H](C)CC)C(=O)N[C@@H](CC(C)C)C(=O)NCC(=O)N[C@@H](Cc1ccccc1)C(=O)O | 3170 nM |  |  | IC50 [5]: 5.4 nM; IC50 [6]: 2.6 nM
16 | TLGPGPGTGLY | 350 nM |  |  | IC50 [1, 7]: 1320 nM; IC50 [3, 8]: 7.4 nM
17 | TLEKLGPGPGY | 269 nM |  |  | IC50 [1, 7]: 4470 nM; IC50 [3, 8]: 1960 nM
18 | ITDIILECVY | 1.8 nM | 7660 | 505 | 
19 | CC[C@H](C)[C@H](NC(=O)[C@H](CCCCN)NC(=O)[C@H](CCC(=O)O)NC(=O)[C@H](CC(C)C)NC(=O)[C@@H](N)[C@@H](C)O)C(=O)N[C@H](C(=O)N[C@@H](CC(N)=O)C(=O)N[C@H](C(=O)N[C@@H](CCC(=O)O)C(=O)N[C@@H](CC(C)C)C(=O)N[C@@H](Cc1ccc(O)cc1)C(=O)O)[C@@H](C)O)[C@@H](C)O | 17 nM |  |  | IC50 [1, 7]: 8400 nM; IC50 [3, 8]: 3900 nM
20 | YSDIRELRHY | 14 nM | 1140 | 740 | 
21 | EYDHYCYSLY | 110000 nM | 799 | 77 | 
22 | CC[C@H](C)[C@H](NC(=O)[C@H](CC(=O)O)NC(=O)[C@H](CCC(N)=O)NC(=O)[C@@H](N)CCCNC(=N)N)C(=O)N[C@@H](CC(C)C)C(=O)N[C@@H](CC(=O)O)C(=O)N[C@@H](CC(C)C)C(=O)N[C@@H](Cc1c[nH]c2ccccc12)C(=O)N[C@H](C(=O)N[C@@H](Cc1ccc(O)cc1)C(=O)O)C(C)C | 9000 nM |  |  | IC50 [1, 7]: 13900 nM; IC50 [3, 8]: 95 nM
23 | ETRHYNYSLY | 445 nM | 5460 | 29 | 
24 | ETSSALEIPY | 19 nM | 12000 | 7140 | 

Row | Compound | IC50 [2] | IC50 [1] [nM] | IC50 [3] [nM] | other results
25 | CC(C)C[C@H](NC(=O)[C@@H](NC(=O)[C@@H](N)CCCCN)[C@@H](C)O)C(=O)N[C@@H](Cc1ccc(O)cc1)C(=O)N[C@@H](CCC(N)=O)C(=O)N[C@@H](CO)C(=O)N[C@@H](CC(N)=O)C(=O)N1CCC[C@H]1C(=O)N[C@@H](Cc1ccc(O)cc1)C(=O)O | 6910 nM |  |  | IC50 [1, 7]: 1700 nM; IC50 [3, 8]: 35 nM
26 | QTEQATSNY | 14 nM | 119000 | 3250 | 
27 | KTDQRSEVY | 84 nM and 41 nM | 200000 | 1170 | 
28 | LSLDGPGPGY | 266 nM |  |  | IC50 [1, 7]: 274 nM
29 | QTEQATSNYY | 11 nM | 9580 | 500 | 
30 | YSDVSEFRWY | 3.9 nM | 1840 |  | 
31 | C[C@H](NC(=O)[C@H](CCC(N)=O)NC(=O)[C@@H](N)CCCNC(=N)N)C(=O)N[C@@H](CCCCN)C(=O)N[C@@H](CCC(N)=O)C(=O)N[C@@H](Cc1c[nH]cn1)C(=O)N[C@H](C(=O)N[C@@H](CS)C(=O)N[C@@H](Cc1ccc(O)cc1)C(=O)O)[C@@H](C)O | > 135000 nM |  |  | IC50 [1, 7]: 155000 nM; IC50 [3, 8]: 108 nM
32 | ELDSALEIPY | 38 nM | 82200 | 38300 | 
33 | FTDLRIVY | 26 nM |  |  | IC50 [1, 7]: 813 nM; IC50 [3, 8]: 8060 nM
34 | RTDILDLWVY | 85 nM | 13400 | 360 | 
35 | STVKHHMY | 8130 nM | 1760 | 68 | 
36 | LIENELMNY | 412 nM |  |  | IC50 [1, 7]: 3940 nM
37 | LTDLRLSCVY | 45 nM | 1780 | 613 | 
38 | CC[C@H](C)[C@H](N)C(=O)N[C@@H](CO)C(=O)N[C@@H](CCC(=O)O)C(=O)N[C@@H](Cc1ccc(O)cc1)C(=O)N[C@@H](CCCNC(=N)N)C(=O)N[C@@H](Cc1c[nH]cn1)C(=O)N[C@@H](Cc1ccc(O)cc1)C(=O)N[C@@H](CC(N)=O)C(=O)N[C@@H](Cc1ccc(O)cc1)C(=O)O | 25 nM |  |  | IC50 [5]: > 23600 nM; IC50 [3, 8]: 32 nM
39 | LTEYVLDLY | 6 nM and 8 nM | 941 | 81 | 
40 | ITKILYQSNPY | > 10100 nM | 64900 |  | 
41 | RTAKQHTCY | 5650 nM | 130000 | 346 | 
42 | QNADKNFLY | 3810 nM |  |  | IC50 [1, 7]: 24 nM; IC50 [3, 8]: 663 nM
43 | YSDVRKYRYY | 19 nM | 849 | 794 | 
44 | YTDGPGIRY | 11 nM | 562 | 7910 | 
45 | KYDYYDYSVY | 186000 nM | 5750 | 11 | 
46 | CC(C)C[C@H](NC(=O)[C@H](CC(=O)O)NC(=O)[C@H](CCC(N)=O)NC(=O)[C@@H](N)[C@@H](C)O)C(=O)N[C@H](C(=O)N[C@@H](CCC(N)=O)C(=O)N[C@@H](CCC(=O)O)C(=O)N[C@@H](CCCCN)C(=O)N[C@@H](Cc1ccc(O)cc1)C(=O)O)C(C)C | 57 nM | 33300 | 3800 | 
47 | YTKVSEFRWY | 276 nM and 204 nM | 3310 | 420 | 
48 | ISDYRHYNY | 16 nM and 28 nM | 45 |  | 
